Experimental data from patent US9975885B2, “Broad-spectrum non-covalent coronavirus protease inhibitors” (priority 2016, dated 2018).

Columns and labels:
FIPV-3CL^pro = FIPV-3CL^pro (Feline coronavirus (strain FIPV WSU-79/1146) (FCoV), UniProt Q98VG9); test: biochemical
PEDV-3CL^pro = PEDV-3CL^pro (Porcine epidemic diarrhea virus (strain CV777) (PEDV), UniProt P0C6Y4); test: biochemical; conditions: for inhibition at 100 µM: read-out: inhibition of PEDV-3CL^pro
HKU1-3CL^pro = HKU1-3CL^pro (Human coronavirus HKU1 (isolate N1) (HCoV-HKU1), UniProt P0C6X2); test: biochemical; conditions: for inhibition at 100 µM: read-out: inhibition of HKU1-3CL^pro
OC43-3CL^pro = OC43-3CL^pro (Human coronavirus OC43 (HCoV-OC43), UniProt P0C6X6); type: biochemical
SARS-3CL^pro = SARS-3CL^pro (Severe acute respiratory syndrome coronavirus (SARS-CoV), UniProt P0C6X7); type: biochemical
HKU5-3CL^pro = HKU5-3CL^pro (Bat coronavirus HKU5 (BtCoV) (BtCoV/HKU5/2004), UniProt P0C6W4); type: biochemical
IBV-3CL^pro = IBV-3CL^pro (Avian infectious bronchitis virus (strain Beaudette) (IBV), UniProt P0C6Y1); type: biochemical
[1] = tested on: Ten CoV 3CL^pro's (FIPV-, PEDV-, NL63-, HKU1-, OC43-, SARS-, HKU4-, HKU5-, HKU9-, IBV-3CL^pro); type: biochemical, coronaviruses (α-, β-, γ-CoV)
NL63-3CL^pro = NL63-3CL^pro (Human coronavirus NL63 (HCoV-NL63), UniProt P0C6X5); test: biochemical
HKU4-3CL^pro = HKU4-3CL^pro (Bat coronavirus HKU4 (BtCoV) (BtCoV/HKU4/2004), UniProt P0C6W3); type: biochemical
HKU9-3CL^pro = HKU9-3CL^pro (Bat coronavirus HKU9 (BtCoV) (BtCoV/HKU9), UniProt P0C6W5); type: biochemical
Sequence of HKU9-3CL^pro (P0C6W5 3104-3409 limits assumed): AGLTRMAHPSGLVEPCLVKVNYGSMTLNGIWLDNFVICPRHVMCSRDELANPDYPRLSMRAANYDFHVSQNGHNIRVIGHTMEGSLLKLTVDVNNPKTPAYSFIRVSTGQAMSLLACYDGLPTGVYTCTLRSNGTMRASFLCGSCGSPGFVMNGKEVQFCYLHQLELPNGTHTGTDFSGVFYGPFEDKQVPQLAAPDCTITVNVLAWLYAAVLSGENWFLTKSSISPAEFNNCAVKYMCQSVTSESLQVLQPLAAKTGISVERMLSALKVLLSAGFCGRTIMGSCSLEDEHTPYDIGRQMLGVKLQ

Sequence of OC43-3CL^pro (P0C6X6 3247-3549 limits assumed): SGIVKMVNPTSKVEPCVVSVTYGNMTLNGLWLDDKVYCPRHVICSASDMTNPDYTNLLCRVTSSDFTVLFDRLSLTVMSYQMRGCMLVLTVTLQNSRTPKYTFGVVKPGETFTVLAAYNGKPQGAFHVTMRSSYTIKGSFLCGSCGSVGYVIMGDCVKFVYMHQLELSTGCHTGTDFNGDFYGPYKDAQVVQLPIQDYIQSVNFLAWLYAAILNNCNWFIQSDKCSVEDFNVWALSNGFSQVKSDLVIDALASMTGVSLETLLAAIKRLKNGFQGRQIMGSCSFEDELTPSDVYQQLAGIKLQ
Sequence of PEDV-3CL^pro (P0C6Y4 2998-3299 limits assumed): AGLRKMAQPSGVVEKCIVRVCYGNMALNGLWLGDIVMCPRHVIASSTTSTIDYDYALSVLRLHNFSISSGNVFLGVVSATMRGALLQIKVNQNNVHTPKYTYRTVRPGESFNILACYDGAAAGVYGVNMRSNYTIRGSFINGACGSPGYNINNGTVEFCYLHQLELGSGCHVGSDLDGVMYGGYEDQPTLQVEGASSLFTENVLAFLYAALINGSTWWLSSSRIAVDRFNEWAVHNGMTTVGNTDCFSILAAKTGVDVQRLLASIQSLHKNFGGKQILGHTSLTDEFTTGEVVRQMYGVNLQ
Sequence of FIPV-3CL^pro (Q98VG9 2904-3205 limits assumed): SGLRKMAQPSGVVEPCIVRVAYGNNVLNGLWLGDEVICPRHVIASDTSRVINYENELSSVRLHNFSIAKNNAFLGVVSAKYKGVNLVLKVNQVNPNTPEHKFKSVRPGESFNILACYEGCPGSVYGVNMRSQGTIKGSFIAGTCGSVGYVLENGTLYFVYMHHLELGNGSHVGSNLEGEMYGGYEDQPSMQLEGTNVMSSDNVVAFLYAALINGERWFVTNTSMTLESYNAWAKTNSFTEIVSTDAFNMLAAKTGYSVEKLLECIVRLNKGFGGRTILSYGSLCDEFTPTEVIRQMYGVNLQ
Sequence of HKU5-3CL^pro (P0C6W4 3339-3644 limits assumed): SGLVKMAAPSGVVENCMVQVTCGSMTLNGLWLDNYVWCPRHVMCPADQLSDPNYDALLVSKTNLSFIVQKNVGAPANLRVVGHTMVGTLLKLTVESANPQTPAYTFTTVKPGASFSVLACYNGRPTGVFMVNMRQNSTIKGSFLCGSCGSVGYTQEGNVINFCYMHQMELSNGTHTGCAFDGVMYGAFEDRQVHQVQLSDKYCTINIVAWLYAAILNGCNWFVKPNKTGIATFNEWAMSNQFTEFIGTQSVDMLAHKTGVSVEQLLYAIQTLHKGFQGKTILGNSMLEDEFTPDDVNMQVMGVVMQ
Sequence of HKU4-3CL^pro (P0C6W3 3292-3597 limits assumed): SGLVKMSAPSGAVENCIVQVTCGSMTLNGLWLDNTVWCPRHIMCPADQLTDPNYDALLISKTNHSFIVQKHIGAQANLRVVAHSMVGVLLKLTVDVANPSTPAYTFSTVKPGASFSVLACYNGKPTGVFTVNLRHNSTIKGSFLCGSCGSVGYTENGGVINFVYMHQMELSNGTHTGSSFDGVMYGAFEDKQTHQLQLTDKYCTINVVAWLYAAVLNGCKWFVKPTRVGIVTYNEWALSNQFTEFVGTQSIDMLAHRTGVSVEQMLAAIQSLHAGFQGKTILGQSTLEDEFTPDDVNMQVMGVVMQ
Sequence of IBV-3CL^pro (P0C6Y1 2780-3086 limits assumed): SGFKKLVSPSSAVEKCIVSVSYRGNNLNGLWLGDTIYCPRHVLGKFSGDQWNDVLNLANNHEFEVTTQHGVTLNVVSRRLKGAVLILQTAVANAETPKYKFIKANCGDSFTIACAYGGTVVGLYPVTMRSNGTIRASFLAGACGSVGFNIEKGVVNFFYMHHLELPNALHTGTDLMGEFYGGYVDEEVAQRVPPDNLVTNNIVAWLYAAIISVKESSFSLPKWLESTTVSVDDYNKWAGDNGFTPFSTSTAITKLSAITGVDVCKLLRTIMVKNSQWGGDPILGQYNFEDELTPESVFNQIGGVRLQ
Sequence of NL63-3CL^pro (P0C6X5 2940-3242 limits assumed): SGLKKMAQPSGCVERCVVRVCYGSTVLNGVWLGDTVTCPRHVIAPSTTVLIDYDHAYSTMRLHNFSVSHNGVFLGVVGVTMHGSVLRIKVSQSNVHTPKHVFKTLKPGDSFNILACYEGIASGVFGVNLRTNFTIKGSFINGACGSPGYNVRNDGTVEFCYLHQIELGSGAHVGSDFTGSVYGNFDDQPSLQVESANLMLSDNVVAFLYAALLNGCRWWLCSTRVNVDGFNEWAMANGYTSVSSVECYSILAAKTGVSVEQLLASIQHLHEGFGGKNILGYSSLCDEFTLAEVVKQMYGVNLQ
Sequence of HKU1-3CL^pro (P0C6X2 3335-3637 limits assumed): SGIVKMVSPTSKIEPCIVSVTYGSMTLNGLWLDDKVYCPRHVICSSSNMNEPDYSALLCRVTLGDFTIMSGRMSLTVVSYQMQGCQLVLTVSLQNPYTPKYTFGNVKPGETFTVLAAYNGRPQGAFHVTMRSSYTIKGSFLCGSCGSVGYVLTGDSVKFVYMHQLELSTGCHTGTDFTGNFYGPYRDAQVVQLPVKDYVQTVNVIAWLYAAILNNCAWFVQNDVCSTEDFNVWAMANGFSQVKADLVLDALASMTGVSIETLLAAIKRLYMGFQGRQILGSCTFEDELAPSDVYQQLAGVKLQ

Row | Structure (SMILES) | IC50 (FIPV-3CL^pro) | inhibition at 100 µM (PEDV-3CL^pro) | inhibition at 100 µM (HKU1-3CL^pro) | IC50 (OC43-3CL^pro) | IC50 (SARS-3CL^pro) | IC50 (HKU5-3CL^pro) | inhibition of γ-CoV IBV-3CL^pro (IBV-3CL^pro) | Gini Coefficient [1] | Score (performance metric score) [1] | inhibition at 100 µM (FIPV-3CL^pro; read-out: inhibition of FIPV-3CL^pro) | inhibition at 100 µM (NL63-3CL^pro; read-out: inhibition of NL63-3CL^pro) | IC50 (HKU4-3CL^pro) | IC50 (PEDV-3CL^pro) | IC50 (HKU1-3CL^pro) | IC50 (NL63-3CL^pro) | inhibition of NL63-3CL^pro (NL63-3CL^pro) | IC50 (HKU9-3CL^pro) | number of 3CL^pro's inhibited [1]
1 | CC(C)C(=O)Nc1ccc(N(C(=O)Cn2nnc3ccccc32)C(C(=O)NCc2ccccc2)c2cccc(F)c2)cc1 (centres unmarked) [Compound 1P, reference compound] | 6.7 ± 0.7 µM | ≤ 50% | ≤ 50% | 6.9 ± 0.9 µM | 1.6 ± 0.2 µM | 1.2 ± 0.1 µM | no compound, including the parent compounds 1P, 2P, and 3P, was found to be capable of inhibiting | 0.31 | 5.7 |  |  |  |  |  |  |  |  | 
2 | CC(C)(C)NC(=O)C(c1ccsc1)N(C(=O)Cn1nnc2ccccc21)c1ccc(NC(=O)C2CC2)cc1 (centres unmarked) [Compound 2P, reference compound] |  | ≤ 50% |  | 24.4 ± 3.5 µM |  | 3.5 ± 0.5 µM | no compound, including the parent compounds 1P, 2P, and 3P, was found to be capable of inhibiting | 0.29 | 8.5 | ≤ 50% | ≤ 50% | 3.8 ± 0.3 µM |  |  |  |  |  | 
3 | CC(C)(C)NC(=O)C(c1cccnc1)N(C(=O)c1c[nH]cn1)c1ccc(C(C)(C)C)cc1 (centres unmarked) [Compound 3P, reference compound] |  |  |  |  |  |  | no compound, including the parent compounds 1P, 2P, and 3P, was found to be capable of inhibiting | 0.13 | 2.7 |  |  |  |  |  |  |  |  | 
4 | CC(C)C(=O)Nc1ccc(N(C(=O)Cn2nnc3ccccc32)C(C(=O)NCc2cccnc2)c2cccc(F)c2)cc1 (centres unmarked) [Compound 6, N-(4-(2-(1H-benzo[d][1,2,3]triazol-1-yl)-N-(1-(3-fluorophenyl)-2-oxo-2-((pyridin-3-ylmethyl)amino)ethyl)acetamido)phenyl)isobutyramide] | 13.8 ± 1.1 µM | > 50% | > 50% | 10 ± 1.9 µM | 5.5 ± 0.7 µM | 2.5 ± 0.2 µM |  |  |  |  |  | 2 ± 0.1 µM | 8.3 ± 1.2 µM | 6.8 ± 1.9 µM |  |  |  | 
5 | O=C(Nc1ccc(N(C(=O)Cn2nnc3ccccc32)C(C(=O)NCc2cccnc2)c2ccsc2)cc1)C1CC1 (centres unmarked) [Compound 34, N-(4-(2-(1H-benzo[d][1,2,3]triazol-1-yl)-N-(2-oxo-2-((pyridin-3-ylmethyl)amino)-1-(thiophen-3-yl)ethyl)acetamido)phenyl)cyclopropanecarboxamide] | 27.5 ± 3.8 µM |  |  | 8.9 ± 0.5 µM | 9.9 ± 0.9 µM | 2.1 ± 0.2 µM |  |  |  |  |  |  |  | 7.4 ± 1.1 µM | 15.6 ± 1.3 µM |  |  | 
6 | CC(C)Cc1ccc(N(C(=O)c2c[nH]cn2)C(C(=O)NC(C)(C)C)c2cccnc2)cc1 (centres unmarked) [Compound 38, N-(2-(tert-butylamino)-2-oxo-1-(pyridin-3-yl)ethyl)-N-(4-isobutylphenyl)-1H-imidazole-4-carboxamide] | 61.1 ± 13.9 µM |  |  | 24.4 ± 3.1 µM | 7 ± 0.6 µM | 10.9 ± 0.9 µM |  | 0.21 | 4.5 |  |  | 7.7 ± 0.7 µM | 15.5 ± 1.8 µM | 15.4 ± 1.5 µM |  | not tolerated | 18 ± 3.3 µM | 
7 | CC(C)(C)NC(=O)C(c1cccnc1)N(C(=O)c1c[nH]cn1)c1ccc(C2CCC2)cc1 (centres unmarked) [Compound 40, N-(2-(tert-butylamino)-2-oxo-1-(pyridin-3-yl)ethyl)-N-(4-cyclobutylphenyl)-1H-imidazole-4-carboxamide] | 27 ± 3.1 µM |  |  | 13.7 ± 1.3 µM | 9.9 ± 1.2 µM | 8.7 ± 1.2 µM |  | 0.16 | 3.6 |  |  | 9.6 ± 0.7 µM | 11.2 ± 1.5 µM | 6.6 ± 1.2 µM |  |  | 18.2 ± 2.2 µM | eight of ten
8 | CC(C)(C)NC(=O)C(c1cccnc1)N(C(=O)c1c[nH]cn1)c1ccc(C2CCCC2)cc1 (centres unmarked) [Compound 41, N-(2-(tert-butylamino)-2-oxo-1-(pyridin-3-yl)ethyl)-N-(4-cyclopentylphenyl)-1H-imidazole-4-carboxamide] | 18.7 ± 2 µM |  |  |  | 5.3 ± 0.5 µM | 19.1 ± 2 µM |  | 0.26 | 6.2 |  |  | 19.8 ± 1.5 µM | 10.5 ± 0.9 µM | 5 ± 0.6 µM |  |  |  | 
9 | CC(C)(C)NC(=O)C(c1cccnc1)N(C(=O)c1c[nH]cn1)c1ccc(C2CCCCC2)cc1 (centres unmarked) [Compound 42, N-(2-(tert-butylamino)-2-oxo-1-(pyridin-3-yl)ethyl)-N-(4-cyclohexylphenyl)-1H-imidazole-4-carboxamide] | 39.7 ± 5.7 µM |  |  | 63.1 ± 12 µM | 6.3 ± 0.5 µM | 4.3 ± 1 µM |  | 0.18 | 6.6 |  |  | 27 ± 4.1 µM | 26.2 ± 2.4 µM | 11.6 ± 1.5 µM |  |  |  | 
10 | CC(C)CNC(=O)C(c1cccnc1)N(C(=O)c1c[nH]cn1)c1ccc(C(C)(C)C)cc1 (centres unmarked) [Compound 43, N-(4-(tert-butyl)phenyl)-N-(2-(isobutylamino)-2-oxo-1-(pyridin-3-yl)ethyl)-1H-imidazole-4-carboxamide] | 16.2 ± 1.3 µM |  |  | 12.4 ± 1 µM | 5.9 ± 0.5 µM | 5.8 ± 0.8 µM |  |  |  |  |  | 4.6 ± 0.3 µM | 1.6 ± 0.1 µM | 5.8 ± 0.8 µM | 13.5 ± 0.8 µM |  | 10.5 ± 1.1 µM | 
11 | CC(C)(C)CNC(=O)C(c1cccnc1)N(C(=O)c1c[nH]cn1)c1ccc(C(C)(C)C)cc1 (centres unmarked) [Compound 44, N-(4-(tert-butyl)phenyl)-N-(2-(neopentylamino)-2-oxo-1-(pyridin-3-yl)ethyl)-1H-imidazole-4-carboxamide] | 12.5 ± 0.8 µM |  |  | 15.6 ± 1 µM | 6.3 ± 0.5 µM | 3.6 ± 0.3 µM |  |  |  |  |  | 4.2 ± 0.2 µM | 1.4 ± 0.1 µM | 9 ± 0.8 µM | 8.2 ± 0.5 µM |  | 9.1 ± 0.8 µM | 
12 | CC(C)(C)c1ccc(N(C(=O)c2c[nH]cn2)C(C(=O)NC2CC2)c2cccnc2)cc1 (centres unmarked) [Compound 46, N-(4-(tert-butyl)phenyl)-N-(2-(cyclopropylamino)-2-oxo-1-(pyridin-3-yl)ethyl)-1H-imidazole-4-carboxamide] | 43.9 ± 6.1 µM |  |  | 24.5 ± 4.3 µM | 11.8 ± 1.6 µM | 8.9 ± 0.9 µM |  |  | 4.0 |  |  | 11.2 ± 1 µM | 4.3 ± 0.4 µM | 7.8 ± 1.2 µM | 16.8 ± 2.9 µM |  |  | 
13 | CC(C)(C)c1ccc(N(C(=O)c2c[nH]cn2)C(C(=O)NC2CCCC2)c2cccnc2)cc1 (centres unmarked) [Compound 47, N-(4-(tert-butyl)phenyl)-N-(2-(cyclopentylamino)-2-oxo-1-(pyridin-3-yl)ethyl)-1H-imidazole-4-carboxamide] | 6.9 ± 0.5 µM |  |  | 7.7 ± 0.8 µM | 1.7 ± 0.2 µM | 2.5 ± 0.2 µM |  |  |  |  |  | 1.9 ± 0.1 µM | 0.7 ± 0.03 µM | 3.4 ± 0.4 µM | 6.3 ± 0.5 µM |  | 6.4 ± 0.5 µM | 
14 | CC(C)(C)c1ccc(N(C(=O)c2c[nH]cn2)C(C(=O)NCc2ccccc2)c2cccnc2)cc1 (centres unmarked) [Compound 48, N-(2-(benzylamino)-2-oxo-1-(pyridin-3-yl)ethyl)-N-(4-(tert-butyl)phenyl)-1H-imidazole-4-carboxamide] | 19 ± 1.7 µM |  |  | 46.5 ± 8 µM | 6.6 ± 0.8 µM | 24.8 ± 2.9 µM |  | 0.17 | 3.5 |  |  | 26.1 ± 2.1 µM | 3.4 ± 0.4 µM | 8 ± 1.5 µM | 26.4 ± 4.2 µM |  | 40.4 ± 8.7 µM | 
15 | CC(C)(C)OC(=O)CNC(=O)C(c1ccsc1)N(C(=O)Cn1nnc2ccccc21)c1ccc(NC(=O)C2CC2)cc1 (centres unmarked) [Compound 64, tert-butyl (2-(2-(1H-benzo[d][1,2,3]triazol-1-yl)-N-(4-(cyclopropanecarboxamido)phenyl)acetamido)-2-(thiophen-3-yl)acetyl)glycinate] | 11.7 ± 1.2 µM |  |  | 4.5 ± 0.3 µM | 6.3 ± 0.8 µM | 2 ± 0.2 µM |  |  |  |  |  | 2.1 ± 0.2 µM | 8.7 ± 1.4 µM | 6.5 ± 0.9 µM | 8.7 ± 0.8 µM |  |  | eight of the ten
